Results: patent US11098032B2, “Pyran dervatives as CYP11A1 (cytochrome P450 monooxygenase 11A1) inhibitors” (ORION CORPORATION, priority 2016, dated 2021)

Target: T1, CYP11A1 (Homo sapiens, UniProt P05108)
T1 construct: human H295R adrenocortical carcinoma cell line was used as source of enzyme; endogenous in cells; host or cells: H295R human adrenocortical carcinoma cells
T1 sequence (P05108 40-521): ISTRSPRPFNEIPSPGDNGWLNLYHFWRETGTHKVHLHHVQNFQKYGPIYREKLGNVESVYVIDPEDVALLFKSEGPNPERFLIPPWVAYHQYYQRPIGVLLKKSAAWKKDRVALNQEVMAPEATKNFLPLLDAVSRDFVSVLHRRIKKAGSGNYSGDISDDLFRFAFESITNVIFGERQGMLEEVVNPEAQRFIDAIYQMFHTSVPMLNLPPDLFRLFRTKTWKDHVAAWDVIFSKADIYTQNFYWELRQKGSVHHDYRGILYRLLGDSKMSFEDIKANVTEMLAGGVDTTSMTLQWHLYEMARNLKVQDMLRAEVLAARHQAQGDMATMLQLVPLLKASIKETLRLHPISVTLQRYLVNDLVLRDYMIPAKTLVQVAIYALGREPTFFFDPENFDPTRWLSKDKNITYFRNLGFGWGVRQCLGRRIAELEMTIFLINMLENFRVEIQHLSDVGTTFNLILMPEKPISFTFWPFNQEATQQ
Assay: CYP11A1 inhibition: modified isocaproic acid release assay (IARA) in H295R cells
Type: cell-based
Conditions: human H295R adrenocortical carcinoma cells treated three days, 3 nM [24,25-3H]-labelled cholesterol, 1% DMSO, 10 concentrations in duplicates; read-out: IC50 of the test compounds on CYP11A1 inhibition
Method: The ability of the test compounds to inhibit conversion of cholesterole to pregnenolone and isocaproic acid was measured by modification of isocaproic acid release assay (IARA) described by Ruangwises et. al. (Biology of Reproduction 1991; 45(1):143-50) except that human H295R adrenocortical carcinoma cell line was used as source of enzyme and extraction was done with dextran-coated charcoal suspension (Isomaa, V. et al., Endocrinology 1982; 111(3):833-843). […] To determine the half maximal inhibitory concentration (IC50) of the test compounds on CYP11A1 inhibition, the cells were treated for three days with increasing concentrations of the test compounds in the presence of 3 nM [24,25-3H]-labelled cholesterol (American Radiolabelled Chemicals). The final DMSO concentration was 1%. Cell culture medium was extracted with dextran-coated charcoal suspension and the radiolabelled isocaproic acid was determined by mixing 100 μl of supernatant fraction in 200 μl of scintillation fluid (OptiPhase SuperMix, Perkin Elmer). Radioactivity was measured using a Microbeta scintillation counter (1450 MicroBeta Trilux, Wallac). All the test compounds were studied at 10 concentrations in duplicates.

Compound	IC50
NC(=O)c1ccc(COc2coc(CN3CCc4ccccc4C3)cc2=O)c(F)c1 [Compound 55, 4-(((6-((3,4-Dihydroisoquinolin-2(1H)-yl)methyl)-4-oxo-4H-pyran-3-yl)oxy)-methyl)-3-fluorobenzamide]	301 to 2000 nM
NC(=O)c1ccc(COc2coc(CN3Cc4ccccc4C3)cc2=O)cc1 [Compound 57, 4-(((6-(Isoindolin-2-ylmethyl)-4-oxo-4H-pyran-3-yl)oxy)methyl)benzamide]	301 to 2000 nM
O=c1cc(CN2Cc3ccccc3C2)occ1OCc1ccc(Br)cc1 [Compound 58, 5-((4-Bromobenzyl)oxy)-2-(isoindolin-2-ylmethyl)-4H-pyran-4-one]	301 to 2000 nM
CC1c2ccccc2CCN1Cc1cc(=O)c(OCc2ccc(C(C)(C)O)cc2)co1 (stereo not drawn) [Compound 59, 5-((4-(2-Hydroxypropan-2-yl)benzyl)oxy)-2-((1-methyl-3,4-dihydroisoquinolin-2(1H)-yl)methyl)-4H-pyran-4-one]	301 to 2000 nM
COC(=O)c1ccc(COc2coc(CN3Cc4ccccc4C3)cc2=O)cc1 [Compound 60, Methyl 4-(((6-(isoindolin-2-ylmethyl)-4-oxo-4H-pyran-3-yl)oxy)methyl)benzoate]	301 to 2000 nM
CNC(=O)c1ccc(COc2coc(CN3Cc4ccccc4C3)cc2=O)cc1 [Compound 62, 4-(((6-(Isoindolin-2-ylmethyl)-4-oxo-4H-pyran-3-yl)oxy)methyl)-N-methylbenzamide]	301 to 2000 nM
CS(=O)(=O)c1ccc(COc2coc(CN3Cc4cc5c(cc4C3)OCO5)cc2=O)cc1 [Compound 66, 2-((5,7-Dihydro-6H-[1,3]dioxolo[4,5-f]isoindol-6-yl)methyl)-5-((4-(methyl-sulfonyl)benzyl)oxy)-4H-pyran-4-one]	301 to 2000 nM
O=c1cc(CN2Cc3ccccc3C2)occ1OCc1ccc(C(F)(F)F)nc1 [Compound 75, 2-(Isoindolin-2-ylmethyl)-5-((6-(trifluoromethyl)pyridin-3-yl)methoxy)-4H-pyran-4-one]	301 to 2000 nM
COc1ccc(COc2coc(CN3Cc4ccccc4C3)cc2=O)cn1 [Compound 76, 2-(Isoindolin-2-ylmethyl)-5-((6-methoxypyridin-3-yl)methoxy)-4H-pyran-4-one]	301 to 2000 nM
CC1c2ccccc2CN1Cc1cc(=O)c(OCc2ccc(C(=O)N(C)C)cc2)co1 (stereo not drawn) [Compound 77, N,N-Dimethyl-4-(((6-((1-methylisoindolin-2-yl)methyl)-4-oxo-4H-pyran-3-yl)oxy)methyl)benzamide]	301 to 2000 nM
CN(C)C(=O)c1ccc(COc2coc(CN3CCc4ccccc4C3)cc2=O)cc1F [Compound 78, 4-(((6-((3,4-Dihydroisoquinolin-2(1H)-yl)methyl)-4-oxo-4H-pyran-3-yl)oxy)-methyl)-2-fluoro-N,N-dimethylbenzamide]	301 to 2000 nM
CNC(=O)c1ccc(COc2coc(CN3Cc4ccccc4C3)cc2=O)cc1F [Compound 79, 2-Fluoro-4-(((6-(isoindolin-2-ylmethyl)-4-oxo-4H-pyran-3-yl)oxy)methyl)-N-methylbenzamide]	301 to 2000 nM
CNC(=O)c1ccc(COc2coc(CN3CCc4ccccc4C3)cc2=O)cc1F [Compound 80, 4-(((6-((3,4-Dihydroisoquinolin-2(1H)-yl)methyl)-4-oxo-4H-pyran-3-yl)oxy)-methyl)-2-fluoro-N-methylbenzamide]	301 to 2000 nM
CS(=N)c1ccc(COc2coc(CN3Cc4ccccc4C3)cc2=O)cc1 (stereo not drawn) [Compound 85, 2-(Isoindolin-2-ylmethyl)-5-((4-(S-methylsulfinimidoyl)benzyl)oxy)-4H-pyran-4-one]	150 to 300 nM

Other lines, results leading:

IC50	Compound
150 to 300 nM	NC(=O)c1ccc(COc2coc(CN3Cc4ccccc4C3)cc2=O)c(F)c1 [Compound 56, 3-Fluoro-4-(((6-(isoindolin-2-ylmethyl)-4-oxo-4H-pyran-3-yl)oxy)methyl)-benzamide]
150 to 300 nM	CN(C)C(=O)c1ccc(COc2coc(CN3Cc4ccccc4C3)cc2=O)c(F)c1 [Compound 61, 3-Fluoro-4-(((6-(isoindolin-2-ylmethyl)-4-oxo-4H-pyran-3-yl)oxy)methyl)-N,N-dimethylbenzamide]
150 to 300 nM	CS(=O)(=O)c1ccc(COc2coc(CN3Cc4ccc(F)cc4C3)cc2=O)cc1 [Compound 63, 2-((5-Fluoroisoindolin-2-yl)methyl)-5-((4-(methylsulfonyl)benzyl)oxy)-4H-pyran-4-one]
150 to 300 nM	CS(=O)(=O)c1ccc(COc2coc(CN3Cc4ccc(Cl)cc4C3)cc2=O)cc1 [Compound 64, 2-((5-Chloroisoindolin-2-yl)methyl)-5-((4-(methylsulfonyl)benzyl)oxy)-4H-pyran-4-one]
< 150 nM	O=c1cc(CN2Cc3ccccc3C2)occ1OCC1CCCCC1 [Compound 65, 5-(Cyclohexylmethoxy)-2-(isoindolin-2-ylmethyl)-4H-pyran-4-one]
150 to 300 nM	O=c1cc(CN2Cc3ccccc3C2)occ1OCC1CCOCC1 [Compound 67, 2-(Isoindolin-2-ylmethyl)-5-((tetrahydro-2H-pyran-4-yl)methoxy)-4H-pyran-4-one]
150 to 300 nM	CS(=O)(=O)c1ccc(COc2coc(CN3Cc4ccc([N+](=O)[O-])cc4C3)cc2=O)cc1 [Compound 68, 5-((4-(Methylsulfonyl)benzyl)oxy)-2-((5-nitroisoindolin-2-yl)methyl)-4H-pyran-4-one]
150 to 300 nM	CC(=O)NC(C)(C)c1ccc(COc2coc(CN3Cc4ccccc4C3)cc2=O)cc1 [Compound 69, N-(2-(4-(((6-(Isoindolin-2-ylmethyl)-4-oxo-4H-pyran-3-yl)oxy)methyl)phenyl)-propan-2-yl)acetamide]
< 150 nM	O=c1cc(CN2Cc3ccc(C(F)(F)F)cc3C2)occ1OCC1CCN(S(=O)(=O)C2COC2)CC1 [Compound 69a, 5-((1-(Oxetan-3-ylsulfonyl)piperidin-4-yl)methoxy)-2-((5-(trifluoromethyl)-isoindolin-2-yl)methyl)-4H-pyran-4-one]
< 150 nM	CC(=O)N(C)S(=O)(=O)c1ccc(COc2coc(CN3Cc4ccccc4C3)cc2=O)cc1 [Compound 70, N-((4-(((6-(Isoindolin-2-ylmethyl)-4-oxo-4H-pyran-3-yl)oxy)methyl)phenyl)-sulfonyl)-N-methylacetamide]
< 150 nM	N=S(=O)(c1ccc(COc2coc(CN3Cc4ccccc4C3)cc2=O)cc1)C1CCC1 (stereo not drawn) [Compound 71, 5-((4-(Cyclobutanesulfonimidoyl)benzyl)oxy)-2-(isoindolin-2-ylmethyl)-4H-pyran-4-one]
< 150 nM	O=c1cc(CN2Cc3ccccc3C2)occ1OCc1ccc(S(=O)(=O)C2CC2)cc1 [Compound 72, 5-((4-(Cyclopropylsulfonyl)benzyl)oxy)-2-(isoindolin-2-ylmethyl)-4H-pyran-4-one]
< 150 nM	CC(C)CS(=O)(=O)c1ccc(COc2coc(CN3Cc4ccccc4C3)cc2=O)cc1 [Compound 73, 5-((4-(Isobutylsulfonyl)benzyl)oxy)-2-(isoindolin-2-ylmethyl)-4H-pyran-4-one]
< 150 nM	CS(=N)c1ccc(COc2coc(CN3Cc4ccc(C(F)(F)F)cc4C3)cc2=O)cc1 (stereo not drawn) [Compound 74, 5-((4-(S-methylsulfinimidoyl)benzyl)oxy)-2-((5-(trifluoromethyl)isoindolin-2-yl)methyl)-4H-pyran-4-one]
150 to 300 nM	C[S+]([O-])c1ccc(COc2coc(CN3Cc4ccccc4C3)cc2=O)cc1 (stereo not drawn) [Compound 81, 2-(Isoindolin-2-ylmethyl)-5-((4-(methylsulfinyl)benzyl)oxy)-4H-pyran-4-one]
150 to 300 nM	CSc1ccc(COc2coc(CN3Cc4ccccc4C3)cc2=O)cc1 [Compound 82, 2-(Isoindolin-2-ylmethyl)-5-((4-(methylthio)benzyl)oxy)-4H-pyran-4-one]
150 to 300 nM	CN(C)C(=O)c1ccc(COc2coc(CN3Cc4cc(F)c(F)cc4C3)cc2=O)cc1 [Compound 82a, 4-(((6-((5,6-Difluoroisoindolin-2-yl)methyl)-4-oxo-4H-pyran-3-yl)oxy)methyl)-N,N-dimethylbenzamide]
< 150 nM	CS(C)(=O)=NC(=O)c1ccc(COc2coc(CN3Cc4ccccc4C3)cc2=O)cc1 [Compound 83, 4-({[6-(1,3-Dihydro-2H-isoindol-2-ylmethyl)-4-oxo-4H-pyran-3-yl]oxy}methyl)-N-[dimethyl(oxido)-λ^6-sulfanylidene]benzamide]
< 150 nM	CS(C)(=O)=NC(=O)c1ccc(COc2coc(CN3Cc4ccc(F)cc4C3)cc2=O)cc1 [Compound 84, N-[Dimethyl(oxido)-λ^6-sulfanylidene]-4-[({6-[(5-fluoro-1,3-dihydro-2H-iso-indol-2-yl)methyl]-4-oxo-4H-pyran-3-yl}oxy)methyl]benzamide]
